# Source: PubChem BioAssay AID256 (DTP/NCI, 2004)
# Several values for one entry are separate records, joined by “and”; a condition that tells them apart may be missing. Equal values may be shown once. Toxic doses and inconclusive results are not listed.
# Tested on: CD2F1 mice, L1210 leukemia ip, survival T/C
# Experiment: NCI In Vivo Anticancer Drug Screen. Data for tumor model L1210 Leukemia (intraperitoneal) in CD2F1 (CDF1) mice
# Details: higher = longer survival
# Description: The antitumor activity of compounds was measured in mice bearing transplantable tumors. Survival or tumor size were measured and the results are expressed as the measurement made in the treated group (T) divided by the measurement made in the vehicle treated control group (C). The tumor model used in this assay is L1210 Leukemia (intraperitoneal) in CD2F1 (CDF1) mice
# [1] = endpoint: mean survival time, dose: 12.5 mg/kg/injection, schedule: Q01DX005 (ip), vehicle: distilled water + Tween-80
# [2] = endpoint: mean survival time, dose: 25.0 mg/kg/injection, schedule: Q01DX005 (ip), vehicle: distilled water + Tween-80
# [3] = endpoint: mean survival time, dose: 50.0 mg/kg/injection, schedule: Q01DX005 (ip), vehicle: distilled water + Tween-80
# [4] = endpoint: mean survival time, dose: 100.0 mg/kg/injection, schedule: Q01DX005 (ip), vehicle: distilled water + Tween-80
# [5] = endpoint: mean survival time, dose: 200.0 mg/kg/injection, schedule: Q01DX005 (ip), vehicle: distilled water + Tween-80
# [6] = endpoint: mean survival time, dose: 100.0 mg/kg/injection, schedule: Q01DX001 (ip), vehicle: saline
# [7] = endpoint: mean survival time, dose: 200.0 mg/kg/injection, schedule: Q01DX001 (ip), vehicle: saline
# [8] = endpoint: mean survival time, dose: 100.0 mg/kg/injection, schedule: Q04DX003 (ip), vehicle: saline with Tween-80
# [9] = endpoint: mean survival time, dose: 200.0 mg/kg/injection, schedule: Q04DX003 (ip), vehicle: saline with Tween-80
# [10] = endpoint: mean survival time, dose: 400.0 mg/kg/injection, schedule: Q04DX003 (ip), vehicle: saline with Tween-80
# [11] = endpoint: median survival time, dose: 3.12 mg/kg/injection, schedule: Q04DX003 (ip), vehicle: saline
# [12] = endpoint: mean survival time, dose: 12.5 mg/kg/injection, schedule: Q01DX009 (ip), vehicle: saline with Tween-80
# [13] = endpoint: mean survival time, dose: 25.0 mg/kg/injection, schedule: Q01DX009 (ip), vehicle: saline with Tween-80
# [14] = endpoint: mean survival time, dose: 50.0 mg/kg/injection, schedule: Q01DX009 (ip), vehicle: saline with Tween-80
# [15] = endpoint: mean survival time, dose: 100.0 mg/kg/injection, schedule: Q01DX009 (ip), vehicle: saline with Tween-80
# [16] = endpoint: mean survival time, dose: 200.0 mg/kg/injection, schedule: Q01DX009 (ip), vehicle: saline with Tween-80
# [17] = endpoint: mean survival time, dose: 100.0 mg/kg/injection, schedule: Q01DX001 (ip), vehicle: saline with Tween-80
# [18] = endpoint: mean survival time, dose: 200.0 mg/kg/injection, schedule: Q01DX001 (ip), vehicle: saline with Tween-80
# [19] = endpoint: mean survival time, dose: 400.0 mg/kg/injection, schedule: Q01DX001 (ip), vehicle: saline with Tween-80
# [20] = endpoint: mean survival time, dose: 400.0 mg/kg/injection, schedule: Q01DX009 (ip), vehicle: saline with Tween-80
smiles,measurement,setting,value
O=c1[nH]c2ncnc(N=Nc3ncnc4[nH]c(=O)[nH]c34)c2[nH]1,T/C,[1],98 % of control
same,T/C,[2],89 % of control
same,T/C,[3],91 % of control
same,T/C,[4],94 % of control
same,T/C,[5],96 % of control
Cc1nc(N)[nH]c(=O)c1Cc1ccccc1O,T/C,[6],100 % of control
same,T/C,[7],97 % of control
same,T/C,"endpoint: mean survival time, dose: 400.0 mg/kg/injection, schedule: Q01DX001 (ip), vehicle: saline",97 % of control
CC/C=C\C/C=C\C/C=C\CCCCCCCC(=O)O,T/C,[8],92 % of control
same,T/C,[9],100 % of control
same,T/C,[10],92 % of control
O.O.[Cl][Pt+2][Cl].[NH-]CC1(C[NH-])CCCCC1,T/C,[11],121 % of control
CC(=O)CC(=O)N1CCN(C(=O)CC(C)=O)CC1,T/C,"endpoint: mean survival time, dose: 100.0 mg/kg/injection, schedule: Q04DX003 (ip), vehicle: saline",98 % of control
same,T/C,"endpoint: mean survival time, dose: 200.0 mg/kg/injection, schedule: Q04DX003 (ip), vehicle: saline",96 % of control
same,T/C,"endpoint: mean survival time, dose: 400.0 mg/kg/injection, schedule: Q04DX003 (ip), vehicle: saline",98 % of control
O=C1N=C(Oc2ccccc2)SC1=O,T/C,[12],95 % of control and 104 % of control
same,T/C,[13],116 % of control and 101 % of control
same,T/C,[14],103 % of control and 106 % of control
same,T/C,[15],97 % of control and 101 % of control
same,T/C,[16],90 % of control
CC(C)(C)C1COP(=S)(c2ccccc2)OC1 (configuration not stated),T/C,"endpoint: mean survival time, dose: 25.0 mg/kg/injection, schedule: Q04DX003 (ip), vehicle: Klucel (hydroxypropylcellulose) (HPC)",94 % of control and 103 % of control
same,T/C,"endpoint: mean survival time, dose: 50.0 mg/kg/injection, schedule: Q04DX003 (ip), vehicle: Klucel (hydroxypropylcellulose) (HPC)",103 % of control and 97 % of control
same,T/C,"endpoint: mean survival time, dose: 100.0 mg/kg/injection, schedule: Q04DX003 (ip), vehicle: Klucel (hydroxypropylcellulose) (HPC)",97 % of control and 102 % of control
O=C(Nc1ccc(-c2cc(-c3ccccc3)on2)cc1)c1ccccc1,T/C,[8],90 % of control
same,T/C,[9],88 % of control
same,T/C,[10],88 % of control
O.[Cl][Pt].[NH-]CC[S-],T/C,"endpoint: mean survival time, dose: 12.5 mg/kg/injection, schedule: Q04DX003 (ip), vehicle: distilled water + Tween-80",90 % of control
same,T/C,"endpoint: mean survival time, dose: 25.0 mg/kg/injection, schedule: Q04DX003 (ip), vehicle: distilled water + Tween-80",102 % of control
same,T/C,"endpoint: mean survival time, dose: 50.0 mg/kg/injection, schedule: Q04DX003 (ip), vehicle: distilled water + Tween-80",95 % of control
same,T/C,"endpoint: mean survival time, dose: 100.0 mg/kg/injection, schedule: Q04DX003 (ip), vehicle: distilled water + Tween-80",100 % of control
CC(C)=NNc1nc2c(N)ncnc2n1C1OC(CO)C(O)C1O (configuration not stated),T/C,[1],97 % of control
same,T/C,"endpoint: mean survival time, dose: 12.5 mg/kg/injection, schedule: Q01DX005 (ip), vehicle: water",96 % of control
same,T/C,[2],97 % of control
same,T/C,"endpoint: mean survival time, dose: 25.0 mg/kg/injection, schedule: Q01DX005 (ip), vehicle: water",94 % of control
same,T/C,[3],97 % of control
same,T/C,"endpoint: mean survival time, dose: 50.0 mg/kg/injection, schedule: Q01DX005 (ip), vehicle: water",99 % of control
same,T/C,[4],97 % of control
same,T/C,"endpoint: mean survival time, dose: 100.0 mg/kg/injection, schedule: Q01DX005 (ip), vehicle: water",99 % of control
same,T/C,[5],100 % of control
same,T/C,"endpoint: mean survival time, dose: 200.0 mg/kg/injection, schedule: Q01DX005 (ip), vehicle: water",97 % of control
C=CCOCC(COCC=C)OC1CCS(=O)(=O)C1 (configuration not stated),T/C,[14],101 % of control
same,T/C,[15],97 % of control
same,T/C,[16],93 % of control
C=CCS(=O)[O-].[C-]#[O+].[C-]#[O+].[Fe+6].[c-]1[c-][c-][cH-][c-]1,T/C,"endpoint: mean survival time, dose: 12.5 mg/kg/injection, schedule: Q04DX002 (ip), vehicle: saline",97 % of control
same,T/C,"endpoint: mean survival time, dose: 25.0 mg/kg/injection, schedule: Q04DX002 (ip), vehicle: saline",102 % of control
same,T/C,"endpoint: mean survival time, dose: 50.0 mg/kg/injection, schedule: Q04DX002 (ip), vehicle: saline",100 % of control
CCOC(=O)C(=NN)C(=O)OCC,T/C,[17],97 % of control
same,T/C,[15],96 % of control
same,T/C,[18],105 % of control
same,T/C,[16],101 % of control
same,T/C,[19],102 % of control
same,T/C,[20],93 % of control
CC1(C)CCC2(CC1)CC(=O)OC(=O)C2,T/C,[17],90 % of control
same,T/C,[18],87 % of control
same,T/C,[19],92 % of control
CCn1c(-c2ccc(OC(C)=O)cc2)c(C)c2cc(OC(C)=O)ccc21,T/C,"endpoint: median survival time, dose: 25.0 mg/kg/injection, schedule: Q01DX009 (ip), vehicle: Klucel (hydroxypropylcellulose) (HPC)",107 % of control
same,T/C,"endpoint: median survival time, dose: 50.0 mg/kg/injection, schedule: Q01DX009 (ip), vehicle: Klucel (hydroxypropylcellulose) (HPC)",102 % of control
same,T/C,"endpoint: median survival time, dose: 100.0 mg/kg/injection, schedule: Q01DX009 (ip), vehicle: Klucel (hydroxypropylcellulose) (HPC)",96 % of control
same,T/C,"endpoint: median survival time, dose: 200.0 mg/kg/injection, schedule: Q01DX009 (ip), vehicle: Klucel (hydroxypropylcellulose) (HPC)",102 % of control
same,T/C,"endpoint: median survival time, dose: 400.0 mg/kg/injection, schedule: Q01DX009 (ip), vehicle: Klucel (hydroxypropylcellulose) (HPC)",90 % of control
CCCCCCCCCCCCCCCC(=O)N1CCN(C)CC1,T/C,[14],89 % of control
same,T/C,[15],91 % of control
same,T/C,[8],93 % of control
same,T/C,[9],90 % of control
Nc1nc(S)c(N)c(=S)[nH]1,T/C,"endpoint: mean survival time, dose: 75.0 mg/kg/injection, schedule: Q01DX001 (ip), vehicle: carboxymethylcellulose (CMC)",102 % of control
O=C1Nc2ccccc2C1=O,T/C,"endpoint: mean survival time, dose: 100.0 mg/kg/injection, schedule: Q01DX001 (ip), vehicle: Klucel (hydroxypropylcellulose) (HPC)",96 % of control
same,T/C,"endpoint: mean survival time, dose: 200.0 mg/kg/injection, schedule: Q01DX001 (ip), vehicle: Klucel (hydroxypropylcellulose) (HPC)",102 % of control
same,T/C,"endpoint: mean survival time, dose: 400.0 mg/kg/injection, schedule: Q01DX001 (ip), vehicle: Klucel (hydroxypropylcellulose) (HPC)",101 % of control
C(=C\CN1CCOCC1)/CN1CCOCC1,T/C,"endpoint: mean survival time, dose: 100.0 mg/kg/injection, schedule: Q01DX009 (ip), vehicle: saline",91 % of control
same,T/C,"endpoint: mean survival time, dose: 200.0 mg/kg/injection, schedule: Q01DX009 (ip), vehicle: saline",97 % of control
same,T/C,"endpoint: mean survival time, dose: 400.0 mg/kg/injection, schedule: Q01DX009 (ip), vehicle: saline",97 % of control
Cc1cc2cc3cc(C)c(N)cc3nc2cc1N,T/C,"endpoint: mean survival time, dose: 3.12 mg/kg/injection, schedule: Q01DX009 (ip), vehicle: saline with Tween-80",103 % of control and 106 % of control
same,T/C,"endpoint: mean survival time, dose: 6.25 mg/kg/injection, schedule: Q01DX009 (ip), vehicle: saline with Tween-80",101 % of control and 107 % of control
same,T/C,[12],106 % of control
same,T/C,[13],98 % of control and 106 % of control
same,T/C,[14],86 % of control and 97 % of control
same,T/C,[15],92 % of control
CCOc1ccc(N2C(=O)CC(Sc3ccccc3N)C2=O)cc1 (configuration not stated),T/C,"endpoint: mean survival time, dose: 100.0 mg/kg/injection, schedule: Q01DX009 (ip), vehicle: acetone",93 % of control
same,T/C,"endpoint: mean survival time, dose: 200.0 mg/kg/injection, schedule: Q01DX009 (ip), vehicle: acetone",104 % of control
same,T/C,"endpoint: mean survival time, dose: 400.0 mg/kg/injection, schedule: Q01DX009 (ip), vehicle: acetone",112 % of control
O=S1(=O)C2CCCCCC2(N2CCOCC2)C1C1CCCCC1 (configuration not stated),T/C,[8],95 % of control
same,T/C,[9],95 % of control
same,T/C,[10],97 % of control
C=C1C[C@@H](O)[C@H](O)[C@@]2(C)C[C@@H]3OC(=O)C(=C)[C@@H]3C[C@H]12,T/C,[15],102 % of control
O=C(O)C1CC1,T/C,[6],96 % of control
same,T/C,[7],108 % of control
O=C(O)CCC(O)C(=O)O.[NH-]C1CCCCC1[NH-].[Pt+2] (configuration not stated),T/C,[11],120 % of control and 110 % of control
same,T/C,"endpoint: median survival time, dose: 6.25 mg/kg/injection, schedule: Q04DX003 (ip), vehicle: saline",120 % of control
same,T/C,"endpoint: median survival time, dose: 25.0 mg/kg/injection, schedule: Q04DX003 (ip), vehicle: saline",158 % of control
same,T/C,"endpoint: median survival time, dose: 50.0 mg/kg/injection, schedule: Q04DX003 (ip), vehicle: saline",170 % of control and 186 % of control
same,T/C,"endpoint: median survival time, dose: 100.0 mg/kg/injection, schedule: Q04DX003 (ip), vehicle: saline",365 % of control
Cc1ccc(NC(=O)OCCOc2ccccc2Cl)cc1[N+](=O)[O-],T/C,[12],98 % of control
same,T/C,[13],103 % of control
same,T/C,[14],88 % of control and 103 % of control
CC1=NN(c2ccccc2)C(=O)CC1,T/C,[8],101 % of control
same,T/C,[9],101 % of control
same,T/C,[10],103 % of control
N#C/C(=N\Nc1ccc(S(=O)(=O)O)cc1)C(N)=O,T/C,[15],95 % of control
same,T/C,[16],91 % of control
same,T/C,[20],94 % of control
COc1ccc(C(C(N)=O)N2CCCC2)cc1 (configuration not stated),T/C,[15],89 % of control
same,T/C,[16],90 % of control
